Laboratory results reported in patent US8829199B2, “Aminopyrazole derivative” (Chugai Seiyaku Kabushiki Kaisha, priority 2009, dated 2014).
pIC50: −log10 of the molar value.

Key:
human FGFR3 enzyme = human FGFR3 enzyme (Homo sapiens (Human), UniProt P22607); assay: Inhibitory activity against the FGFR3 enzyme (phosphorylation of biotinylated peptide, time-resolved fluorescence)
From the text: Inhibitory Activity Against the FGFR3 Enzyme
(§1) Phosphorylated biotinylated peptides were detected by the time-resolved fluorescent measurement using a europium cryptate-linked anti-phophotyrosine antibody and a streptavidin to which XL665, a derivative of allophycocyanine, is linked.

human FGFR2 enzyme = human FGFR2 enzyme (Homo sapiens (Human), UniProt P21802); assay: Inhibitory activity against the FGFR2 enzyme (phosphorylation of biotinylated peptide, time-resolved fluorescence)
human FGFR2 enzyme, sequence (P21802 22-821): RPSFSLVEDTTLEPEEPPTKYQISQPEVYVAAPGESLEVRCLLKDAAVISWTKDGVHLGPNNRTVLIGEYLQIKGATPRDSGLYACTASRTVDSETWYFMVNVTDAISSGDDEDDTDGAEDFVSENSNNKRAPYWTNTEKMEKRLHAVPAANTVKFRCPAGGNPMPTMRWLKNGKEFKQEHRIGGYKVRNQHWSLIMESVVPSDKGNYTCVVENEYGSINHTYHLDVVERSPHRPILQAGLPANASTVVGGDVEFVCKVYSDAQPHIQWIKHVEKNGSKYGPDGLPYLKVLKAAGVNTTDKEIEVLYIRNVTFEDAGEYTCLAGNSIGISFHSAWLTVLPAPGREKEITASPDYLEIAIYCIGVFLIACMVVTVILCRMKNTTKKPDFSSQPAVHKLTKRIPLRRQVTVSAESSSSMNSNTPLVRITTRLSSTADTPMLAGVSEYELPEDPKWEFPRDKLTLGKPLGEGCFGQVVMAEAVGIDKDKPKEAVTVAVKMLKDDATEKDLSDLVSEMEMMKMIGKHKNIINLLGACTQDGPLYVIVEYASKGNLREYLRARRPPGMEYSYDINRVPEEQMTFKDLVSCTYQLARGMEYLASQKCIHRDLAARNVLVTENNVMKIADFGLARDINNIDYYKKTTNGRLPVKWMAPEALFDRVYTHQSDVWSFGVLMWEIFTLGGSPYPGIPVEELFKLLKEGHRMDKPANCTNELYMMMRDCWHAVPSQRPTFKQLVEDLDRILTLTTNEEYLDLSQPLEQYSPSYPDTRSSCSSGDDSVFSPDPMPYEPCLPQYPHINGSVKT
From the text: as §1

human FGFR1 enzyme = human FGFR1 enzyme (Homo sapiens (Human), UniProt P11362); assay: Inhibitory activity against the FGFR1 enzyme (phosphorylation of biotinylated peptide, time-resolved fluorescence)
human FGFR1 enzyme, sequence (P11362 22-822): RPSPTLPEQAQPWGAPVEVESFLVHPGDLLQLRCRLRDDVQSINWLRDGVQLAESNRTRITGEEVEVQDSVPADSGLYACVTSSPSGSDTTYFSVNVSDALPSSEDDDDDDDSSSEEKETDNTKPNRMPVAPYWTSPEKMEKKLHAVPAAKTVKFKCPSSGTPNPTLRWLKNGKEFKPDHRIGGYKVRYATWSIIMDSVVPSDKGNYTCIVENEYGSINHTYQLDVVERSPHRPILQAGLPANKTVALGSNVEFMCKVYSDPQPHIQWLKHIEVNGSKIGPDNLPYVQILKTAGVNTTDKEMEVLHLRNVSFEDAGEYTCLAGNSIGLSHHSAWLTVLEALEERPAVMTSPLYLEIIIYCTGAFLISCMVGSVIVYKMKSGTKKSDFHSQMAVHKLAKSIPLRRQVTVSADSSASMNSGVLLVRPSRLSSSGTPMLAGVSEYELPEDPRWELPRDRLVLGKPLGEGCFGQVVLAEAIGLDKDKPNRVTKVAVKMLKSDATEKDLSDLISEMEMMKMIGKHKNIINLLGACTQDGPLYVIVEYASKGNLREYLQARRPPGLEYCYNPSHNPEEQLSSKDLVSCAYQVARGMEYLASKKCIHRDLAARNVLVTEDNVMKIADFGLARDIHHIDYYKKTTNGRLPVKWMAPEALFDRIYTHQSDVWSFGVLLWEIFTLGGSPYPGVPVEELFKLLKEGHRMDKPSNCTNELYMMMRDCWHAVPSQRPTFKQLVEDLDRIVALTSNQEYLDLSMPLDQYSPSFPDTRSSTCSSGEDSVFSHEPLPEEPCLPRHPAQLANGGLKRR
From the text: Inhibitory Activity Against the FGFR1 Enzyme
as §1

human FGFR3 enzyme, sequence (P22607 23-806): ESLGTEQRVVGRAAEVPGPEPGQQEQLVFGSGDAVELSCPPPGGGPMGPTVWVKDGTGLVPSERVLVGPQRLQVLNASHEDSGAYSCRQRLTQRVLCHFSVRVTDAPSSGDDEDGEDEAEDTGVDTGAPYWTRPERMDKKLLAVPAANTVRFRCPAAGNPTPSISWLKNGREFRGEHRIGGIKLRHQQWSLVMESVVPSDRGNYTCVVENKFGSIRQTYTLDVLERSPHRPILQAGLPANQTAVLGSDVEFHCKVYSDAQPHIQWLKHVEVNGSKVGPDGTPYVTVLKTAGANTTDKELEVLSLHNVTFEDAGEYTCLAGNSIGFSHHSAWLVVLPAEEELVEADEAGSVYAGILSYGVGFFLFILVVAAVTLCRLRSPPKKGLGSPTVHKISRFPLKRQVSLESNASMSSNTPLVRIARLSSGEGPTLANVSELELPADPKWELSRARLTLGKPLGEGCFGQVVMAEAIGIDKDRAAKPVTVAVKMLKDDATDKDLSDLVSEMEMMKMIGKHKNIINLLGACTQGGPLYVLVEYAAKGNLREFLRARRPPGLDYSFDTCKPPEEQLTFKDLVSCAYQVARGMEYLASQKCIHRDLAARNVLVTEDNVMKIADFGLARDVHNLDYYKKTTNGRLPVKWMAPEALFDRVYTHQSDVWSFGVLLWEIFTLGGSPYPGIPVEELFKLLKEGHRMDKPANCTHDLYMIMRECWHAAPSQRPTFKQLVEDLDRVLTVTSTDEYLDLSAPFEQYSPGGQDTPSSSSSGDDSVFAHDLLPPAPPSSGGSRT

Row | SMILES | pIC50 (human FGFR3 enzyme) | pIC50 (human FGFR2 enzyme) | pIC50 (human FGFR1 enzyme)
1 | Cc1nc2cc(-n3ncc(C(=O)c4cc5ccc(-c6ccnnc6)cc5[nH]4)c3N)ccc2[nH]1 [Example 89, [5-amino-1-(2-methyl-1H-benzimidazol-5-yl)-1H-pyrazol-4-yl]-(6-pyridazin-4-yl-1H-indol-2-yl)-methanone] | ≥ 6.52 |  | 
2 | Cc1ccnc(-c2ccc3cc(C(=O)c4cnn(-c5ccc6[nH]c(C)nc6c5)c4N)[nH]c3c2)c1 [Example 32] | ≥ 6.52 |  | 
3 | Cc1nc2cc(-n3ncc(C(=O)c4cc5ccc(-c6ccc(N7CCNCC7)nc6)cc5[nH]4)c3N)ccc2[nH]1 [Example 110, [5-amino-1-(2-methyl-1H-benzimidazol-5-yl)-1H-pyrazol-4-yl]-[6-(6-piperazin-1-yl-pyridin-3-yl)-1H-indol-2-yl]-methanone] | ≥ 6.52 | ≥ 6.52 | ≥ 6.52
4 | Cc1nc2cc(-n3ncc(C(=O)c4cc5cc6c(cc5[nH]4)OCO6)c3N)ccc2[nH]1 [Example 61, [5-amino-1-(2-methyl-1H-benzimidazol-5-yl)-1H-pyrazol-4-yl]-(5H-[1,3]dioxolo[4,5-f]indol-6-yl)-methanone] | ≥ 6.52 |  | 
